In PubChem BioAssay AID248 (DTP/NCI, 2004):
Several values for one entry are separate records, joined by “and”; a condition that tells them apart may be missing. Identical values can stand only once. Inconclusive results and toxic doses are left out. Cut-off read from the data, not from the text of the source: active = T/C of 150% or more; inactive = T/C below 125%.

System: L1210 leukemia ip in BDF1 mice, survival T/C
Assay: NCI In Vivo Anticancer Drug Screen. Data for tumor model L1210 Leukemia (intraperitoneal) in B6D2F1 (BDF1) mice
Conditions: endpoint: mean survival time, higher = longer survival
Procedure, shortened: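 Each compound was tested against a transplantable tumor grown in mice. The endpoint was survival, with treated animals benchmarked against vehicle controls as a simple ratio.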

[1] = dose: 100.0 mg/kg/injection, schedule: Q01DX001 (ip), vehicle: Klucel (hydroxypropylcellulose) (HPC)
[2] = dose: 200.0 mg/kg/injection, schedule: Q01DX001 (ip), vehicle: Klucel (hydroxypropylcellulose) (HPC)
[3] = dose: 100.0 mg/kg/injection, schedule: Q01DX009 (ip), vehicle: Klucel (hydroxypropylcellulose) (HPC)
[4] = dose: 100.0 mg/kg/injection, schedule: Q04DX003 (ip), vehicle: Klucel (hydroxypropylcellulose) (HPC)
[5] = dose: 200.0 mg/kg/injection, schedule: Q01DX009 (ip), vehicle: Klucel (hydroxypropylcellulose) (HPC)
[6] = dose: 200.0 mg/kg/injection, schedule: Q04DX003 (ip), vehicle: Klucel (hydroxypropylcellulose) (HPC)
[7] = dose: 400.0 mg/kg/injection, schedule: Q01DX009 (ip), vehicle: Klucel (hydroxypropylcellulose) (HPC)
[8] = dose: 400.0 mg/kg/injection, schedule: Q04DX003 (ip), vehicle: Klucel (hydroxypropylcellulose) (HPC)
[9] = dose: 400.0 mg/kg/injection, schedule: Q01DX001 (ip), vehicle: Klucel (hydroxypropylcellulose) (HPC)
[10] = dose: 100.0 mg/kg/injection, schedule: Q04DX003 (ip), vehicle: saline
[11] = dose: 25.0 mg/kg/injection, schedule: Q04DX002 (ip), vehicle: Klucel (hydroxypropylcellulose) (HPC)
[12] = dose: 50.0 mg/kg/injection, schedule: Q04DX002 (ip), vehicle: Klucel (hydroxypropylcellulose) (HPC)
[13] = dose: 100.0 mg/kg/injection, schedule: Q04DX002 (ip), vehicle: Klucel (hydroxypropylcellulose) (HPC)
[14] = dose: 100.0 mg/kg/injection, schedule: Q01DX001 (ip), vehicle: saline with Tween-80
[15] = dose: 200.0 mg/kg/injection, schedule: Q01DX001 (ip), vehicle: saline with Tween-80
[16] = dose: 75.0 mg/kg/injection, schedule: Q01DX001 (ip), vehicle: saline
[17] = dose: 150.0 mg/kg/injection, schedule: Q01DX001 (ip), vehicle: saline
[18] = dose: 12.5 mg/kg/injection, schedule: Q04DX003 (ip), vehicle: saline
[19] = dose: 12.5 mg/kg/injection, schedule: Q01DX009 (ip), vehicle: saline
[20] = dose: 25.0 mg/kg/injection, schedule: Q01DX009 (ip), vehicle: saline

Measured: T/C

COC(=O)NS(=O)(=O)/C=C/N1CCCC1=O
inactive: dose: 75.0 mg/kg/injection, schedule: Q04DX003 (ip), vehicle: Klucel (hydroxypropylcellulose) (HPC) 96 % of control | dose: 150.0 mg/kg/injection, schedule: Q04DX003 (ip), vehicle: Klucel (hydroxypropylcellulose) (HPC) 100 % of control | dose: 300.0 mg/kg/injection, schedule: Q04DX003 (ip), vehicle: Klucel (hydroxypropylcellulose) (HPC) 100 % of control

Clc1cc(NCc2ccco2)ncn1
inactive: dose: 50.0 mg/kg/injection, schedule: Q01DX001 (ip), vehicle: Klucel (hydroxypropylcellulose) (HPC) 103 % of control | [1] 97 % of control | [2] 97 % of control

Cc1ccc(S(=O)(=O)/N=S(\Cc2ccccc2)c2ccccc2)cc1 (configuration not stated)
inactive: [3] 92 % of control | [4] 93 % of control | [5] 89 % of control | [6] 97 % of control | [7] 92 % of control | [8] 98 % of control

Nc1ccc(Cl)cc1C(=O)O
inactive: [1] 90 % of control | [2] 101 % of control | [9] 90 % of control

Cc1ccc(NC(=O)Nc2ccccc2F)cc1Cl
inactive: [3] 111 % of control | [5] 97 % of control | [7] 92 % of control

O=C(O)/C(=C\CCCCC/C=C(\CCO)C(=O)O)CCO
inactive: [3] 100 % of control | [4] 98 % of control | [5] 96 % of control | [6] 100 % of control | [7] 99 % of control | [8] 91 % of control

COc1cc(/C=C(/NC(=O)c2ccccc2)C(=O)O)ccc1O
inactive: dose: 100.0 mg/kg/injection, schedule: Q01DX001 (ip), vehicle: saline 94 % of control | [10] 96 % of control | dose: 200.0 mg/kg/injection, schedule: Q01DX001 (ip), vehicle: saline 89 % of control | dose: 200.0 mg/kg/injection, schedule: Q04DX003 (ip), vehicle: saline 97 % of control | dose: 400.0 mg/kg/injection, schedule: Q01DX001 (ip), vehicle: saline 96 % of control | dose: 400.0 mg/kg/injection, schedule: Q04DX003 (ip), vehicle: saline 88 % of control

COc1ccc(NC(=O)C2C3C=CC(C3)C2C(=O)Nc2ccc(OC)cc2)cc1 (configuration not stated)
inactive: dose: 100.0 mg/kg/injection, schedule: Q04DX003 (ip), vehicle: saline with Tween-80 100 % of control | dose: 200.0 mg/kg/injection, schedule: Q04DX003 (ip), vehicle: saline with Tween-80 87 % of control | dose: 400.0 mg/kg/injection, schedule: Q04DX003 (ip), vehicle: saline with Tween-80 91 % of control

C=CCN1C(=O)C2C3C=CC(C3)C2C1=O (configuration not stated)
inactive: dose: 6.0 mg/kg/injection, schedule: Q04DX002 (ip), vehicle: Klucel (hydroxypropylcellulose) (HPC) 114 % of control | [11] 114 % of control | [12] 117 % of control | [13] 97 % of control

CC(=O)CC(=O)N1CCC(C)CC1
inactive: [3] 96 % of control | [4] 103 % of control | [5] 100 % of control | [6] 101 % of control | [7] 95 % of control | [8] 101 % of control

CC(=O)Oc1cccc2c1C(=O)OC2=O
inactive: [14] 89 % of control | [15] 108 % of control

C=C1C(=O)OC2C1C(OC(=O)/C(=C/C)COC(C)=O)CC1(CO1)C1C(OC(=O)/C(=C/C)CO)C3OC3(C)C21 (configuration not stated)
inactive: dose: 3.12 mg/kg/injection, schedule: Q01DX009 (ip), vehicle: alcohol 110 % of control | dose: 6.25 mg/kg/injection, schedule: Q01DX009 (ip), vehicle: alcohol 104 % of control | dose: 12.5 mg/kg/injection, schedule: Q01DX009 (ip), vehicle: alcohol 96 % of control

Cc1nc(N)[nH]c(=O)c1CCc1ccccc1
inactive: [4] 100 % of control | [6] 94 % of control | [8] 100 % of control

Cc1ccccc1N1CCN(c2ccccc2C)C1=C1N(c2ccccc2C)CCN1c1ccccc1C
inactive: dose: 100.0 mg/kg/injection, schedule: Q04DX002 (ip), vehicle: DMSO 103 % of control | dose: 200.0 mg/kg/injection, schedule: Q04DX002 (ip), vehicle: DMSO 98 % of control

O=C(Nc1cc(Cl)ccc1Oc1cc(Cl)c(Cl)cc1S(=O)(=O)O)Nc1cc(Cl)ccc1Oc1cc(Cl)c(Cl)cc1S(=O)(=O)O
inactive: dose: 18.75 mg/kg/injection, schedule: Q01DX009 (ip), vehicle: saline 97 % of control | dose: 37.5 mg/kg/injection, schedule: Q01DX009 (ip), vehicle: saline 90 % of control | [16] 106 % of control | dose: 75.0 mg/kg/injection, schedule: Q01DX009 (ip), vehicle: saline 94 % of control | [17] 97 % of control

NC(=S)N/N=C/c1cccn1-c1ccc2ncccc2c1[N+](=O)[O-]
inactive: [11] 93 % of control | [12] 93 % of control | [13] 90 % of control

CC(C)CCCC(C)CCC1C(=O)NC(=O)NC1=O (configuration not stated)
inactive: [16] 90 % of control | [17] 88 % of control

Nc1nc(N)c2cc(NCc3ccccc3Cl)ccc2n1
inactive: dose: 3.12 mg/kg/injection, schedule: Q01DX009 (ip), vehicle: saline with Tween-80 111 % of control | dose: 6.25 mg/kg/injection, schedule: Q01DX009 (ip), vehicle: saline with Tween-80 103 % of control | dose: 6.25 mg/kg/injection, schedule: Q04DX003 (ip), vehicle: saline 94 % of control | dose: 12.5 mg/kg/injection, schedule: Q01DX009 (ip), vehicle: saline with Tween-80 95 % of control | [18] 102 % of control | dose: 25.0 mg/kg/injection, schedule: Q01DX001 (ip), vehicle: acetone 100 % of control

O=C(O)CCCCCCCCC(=O)c1ccccc1
inactive: dose: 100.0 mg/kg/injection, schedule: Q01DX009 (ip), vehicle: saline with Tween-80 95 % of control | dose: 200.0 mg/kg/injection, schedule: Q01DX009 (ip), vehicle: saline with Tween-80 91 % of control | dose: 400.0 mg/kg/injection, schedule: Q01DX009 (ip), vehicle: saline with Tween-80 95 % of control

O=c1cc(Nc2ccccc2)[nH]c(=O)[nH]1
inactive: [1] 92 % of control | [2] 93 % of control | [9] 95 % of control

CN(C)NCCN1CCN(CCCN2c3ccccc3Sc3ccc(C(F)(F)F)cc32)CC1
inactive: dose: 6.25 mg/kg/injection, schedule: Q01DX009 (ip), vehicle: saline 116 % of control | [19] 89 % of control | [18] 101 % of control | [20] 107 % of control | dose: 25.0 mg/kg/injection, schedule: Q04DX003 (ip), vehicle: saline 104 % of control

O=C1c2ccccc2C(=O)N1NS(=O)c1ccccc1 (configuration not stated)
inactive: dose: 100.0 mg/kg/injection, schedule: Q04DX002 (ip), vehicle: saline with Tween-80 93 % of control | dose: 200.0 mg/kg/injection, schedule: Q04DX002 (ip), vehicle: saline with Tween-80 104 % of control | dose: 400.0 mg/kg/injection, schedule: Q04DX002 (ip), vehicle: saline with Tween-80 101 % of control

CCN(CC)CC(=O)N1Cc2ccccc2CCc2ccccc2C1
inactive: [10] 92 % of control

C=CCCCCCCCCCC(CCCCC)C(=O)O (configuration not stated)
inactive: [14] 100 % of control | [15] 94 % of control | dose: 400.0 mg/kg/injection, schedule: Q01DX001 (ip), vehicle: saline with Tween-80 92 % of control

CC(NC(=O)c1ccccc1)C(=O)O (configuration not stated)
inactive: dose: 50.0 mg/kg/injection, schedule: Q01DX009 (ip), vehicle: Klucel (hydroxypropylcellulose) (HPC) 110 % of control | [3] 91 % of control | [13] 90 % of control | dose: 200.0 mg/kg/injection, schedule: Q04DX002 (ip), vehicle: Klucel (hydroxypropylcellulose) (HPC) 108 % of control | dose: 400.0 mg/kg/injection, schedule: Q04DX002 (ip), vehicle: Klucel (hydroxypropylcellulose) (HPC) 93 % of control

CCN(CC)CCCC(C)Nc1cccc2c1C(=O)c1cccc(NC(C)CCCN(CC)CC)c1C2=O (configuration not stated)
inactive: [19] 107 % of control | [20] 96 % of control and 118 % of control | dose: 25.0 mg/kg/injection, schedule: Q04DX002 (ip), vehicle: saline 98 % of control and 95 % of control | dose: 50.0 mg/kg/injection, schedule: Q04DX002 (ip), vehicle: saline 92 % of control and 98 % of control | dose: 100.0 mg/kg/injection, schedule: Q04DX002 (ip), vehicle: saline 102 % of control and 92 % of control
